Data reported in patent US20050182242A1, “Global analysis of protein activities using proteome chips” (priority 2001, published 2005).

Tested on: total yeast genomic DNA
Assay: Yeast proteome chip probed with labeled genomic DNA
Assay type: binding
Conditions: Cy3-labeled genomic DNA, visual inspection
From the text: Protein-DNA and protein-RNA interactions are important for many fundamental biological functions such as transcription regulation, chromosome segregation and maintenance, and RNA transport and processing (Williamson, 2000, Nat. Struct. Biol. 7(10):834-7). To explore the possibility of using a proteome chip to identify proteins that bind to DNA or RNA molecules, total yeast genomic DNA was labeled using Cy3-CTP and Klenow fragment, and polyA^+ was labeled using a biotinylated psoralen-derivative (31). Each probe was incubated with a different proteome chip (FIG. 3A).
The protein-nucleic acid interaction was assayed as follows. The nucleic acid robes were labeled as described by Winzeler et al. (1999, Science 285:901). Blocked proteome chips were washed three to five times in PBS buffer, and the extra liquid on the glass surface was removed by tapping the slides vertically on a KIMWIPE™. 200 μl of labeled nuclei acid probe ([…] poly(dC/dG); 100-300 mM NaCl; 50-300 mM HEPES, pH 7.0-8.5; 10 mM MgCl2) was added to the proteome chip and immediately covered by a hydrophobic plastic cover slip (GRACE BIO-LABS™, USA). After trapped air bubbles were removed, the chip was incubated in a humidity chamber in the dark at room temperature (“RT”) for one hour. To remove the cover slip, the chip was immersed into large volume of PBS buffer(>50 ml), so that the slip would float away. […]

Gcd11p: gamma subunit of translation initiation factor eIF2
binding of genomic DNA probe: tested positive
